Data on 22 compounds can be found in patent US10865208B2, “ATG7 inhibitors and the uses thereof” (Millennium Pharmaceuticals, Inc., priority 2016, dated 2020).

The target of the test is recombinant human His-ATG7 enzyme (Homo sapiens (Human), UniProt O95352). In words: ATG7 Enzyme Assay (HTRF/FRET, ATG3-GST and Flag-Gabarap). It is filed as biochemical. As to conditions: for inhibition at 0.123 µM: Concentration 0.123 μM; for inhibition at 0.111 µM: Concentration 0.111 μM. In outline: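 HTRF read-out after 2 h at 24° C, using Eu-cryptate anti-Flag and XL-APC anti-GST antibodies in an EDTA stop buffer. The preceding 105 min, 24° C reaction (pH 7.5) held 10 μM ATP, 5 nM each ATG3-GST and Flag-Gabarap, and 0.15 nM human His-ATG7. Values are IC50 or percent inhibition at one concentration.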
recombinant human His-ATG7 enzyme, sequence (O95352 whole entry): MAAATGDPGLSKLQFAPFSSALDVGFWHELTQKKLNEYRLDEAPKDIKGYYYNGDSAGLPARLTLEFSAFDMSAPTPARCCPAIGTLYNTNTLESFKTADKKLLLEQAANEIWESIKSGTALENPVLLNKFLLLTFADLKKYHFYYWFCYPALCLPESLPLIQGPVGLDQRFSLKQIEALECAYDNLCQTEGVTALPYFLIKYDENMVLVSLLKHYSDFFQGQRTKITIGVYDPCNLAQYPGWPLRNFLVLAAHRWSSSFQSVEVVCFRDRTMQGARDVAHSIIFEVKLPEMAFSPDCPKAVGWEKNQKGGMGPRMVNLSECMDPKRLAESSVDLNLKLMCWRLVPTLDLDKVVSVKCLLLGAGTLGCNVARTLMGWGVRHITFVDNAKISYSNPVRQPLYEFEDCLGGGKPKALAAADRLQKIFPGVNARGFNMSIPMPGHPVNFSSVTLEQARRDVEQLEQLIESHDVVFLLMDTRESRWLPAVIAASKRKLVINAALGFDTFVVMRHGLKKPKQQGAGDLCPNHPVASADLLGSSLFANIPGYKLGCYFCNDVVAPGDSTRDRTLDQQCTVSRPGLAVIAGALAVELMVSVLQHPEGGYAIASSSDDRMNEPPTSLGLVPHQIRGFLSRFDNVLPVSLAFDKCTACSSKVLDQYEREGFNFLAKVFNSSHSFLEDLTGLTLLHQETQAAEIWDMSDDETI

What is called IC50 is the concentration needed to halve the response being measured. A word on the inhibition: it is the share of the control response that was lost under treatment.

`C#CCSc1nn([C@@H]2O[C@H](COS(N)(=O)=O)[C@@H](O)[C@H]2O)c2ncnc(N)c12` [Compound I-43, {(2R,3S,4R,5R)-5-[4-amino-3-(prop-2-yn-1-ylsulfanyl)-1H-pyrazolo[3,4-d]pyrimidin-1-yl]-3,4-dihydroxytetrahydrofuran-2-yl}methyl sulfamate]: the IC50 lay within 20 to 50 nM. The inhibition at 0.123 µM (read-out: Percent Inhibition) was determined as 75%.

On to `Nc1ncnc2c1c(Sc1ccc(F)cc1)nn2[C@@H]1O[C@H](COS(N)(=O)=O)[C@@H](O)[C@@H]1F` [Compound I-126, [(2R,3R,4S,5R)-5-{4-amino-3-[(4-fluorophenyl)sulfanyl]-1H-pyrazolo[3,4-d]pyrimidin-1-yl}-4-fluoro-3-hydroxytetrahydrofuran-2-yl]methyl sulfamate], for which the IC50 lay within 20 to 50 nM. In addition, for the setting “read-out: Percent Inhibition”, the inhibition at 0.111 µM came to 71%.

On to `Nc1ncnc2c1c(Sc1ccncc1)nn2[C@@H]1O[C@H](COS(N)(=O)=O)[C@@H](O)[C@H]1O` [Compound I-66, {(2R,3S,4R,5R)-5-[4-amino-3-(pyridin-4-ylsulfanyl)-1H-pyrazolo[3,4-d]pyrimidin-1-yl]-3,4-dihydroxytetrahydrofuran-2-yl}methyl sulfamate], for which the IC50 lay in the range of 20 to 50 nM. The inhibition at 0.123 µM (read-out: Percent Inhibition) stood at 68%.

As to `CSc1nn([C@H]2C[C@H](O)[C@@H](COS(N)(=O)=O)O2)c2ncnc(N)c12` [Compound I-200, {(2R,3S,5R)-5-[4-amino-3-(methylsulfanyl)-1H-pyrazolo[3,4-d]pyrimidin-1-yl]-3-hydroxytetrahydrofuran-2-yl}methyl Sulfamate], the IC50 lay in the range of 20 to 50 nM. For the same compound, where the note is “read-out: Percent Inhibition”, the inhibition at 0.111 µM was 70%.

Take `Nc1ncnc2c1c(C(F)(F)F)nn2[C@H]1C[C@H](O)[C@H](COS(N)(=O)=O)O1` [Compound I-209, {(2S,3S,5R)-5-[4-amino-3-(trifluoromethyl)-1H-pyrazolo[3,4-d]pyrimidin-1-yl]-3-hydroxytetrahydrofuran-2-yl}methyl Sulfamate]: the IC50 fell in the range of 100 to 500 nM. The inhibition at 0.111 µM (read-out: Percent Inhibition) was 42%.

With `Nc1ncnc2c1c(Sc1ccccc1)nn2[C@@H]1O[C@H](COS(N)(=O)=O)[C@@H](O)[C@H]1O` [Compound I-82, {(2R,3S,4R,5R)-5-[4-amino-3-(phenylsulfanyl)-1H-pyrazolo[3,4-d]pyrimidin-1-yl]-3,4-dihydroxytetrahydrofuran-2-yl}methyl Sulfamate], the IC50 lay in the range of 20 to 50 nM. Moreover, where the note is “read-out: Percent Inhibition”, the inhibition at 0.111 µM amounted to 80%.

`Nc1ncnc2c1c(SCc1cccnn1)nn2[C@@H]1O[C@H](COS(N)(=O)=O)[C@@H](O)[C@@H]1F` [Compound I-127, [(2R,3R,4S,5R)-5-{4-amino-3-[(pyridazin-3-ylmethyl)sulfanyl]-1H-pyrazolo[3,4-d]pyrimidin-1-yl}-4-fluoro-3-hydroxytetrahydrofuran-2-yl]methyl sulfamate]: the IC50 lay within 50 to 100 nM. For the same compound, under “read-out: Percent Inhibition”, the inhibition at 0.111 µM was 61%.

For the compound `Nc1ncnc2c1c(SCc1ccnnc1)nn2[C@@H]1O[C@H](COS(N)(=O)=O)[C@@H](O)[C@@H]1F` [Compound I-128, [(2R,3R,4S,5R)-5-{4-amino-3-[(pyridazin-4-ylmethyl)sulfanyl]-1H-pyrazolo[3,4-d]pyrimidin-1-yl}-4-fluoro-3-hydroxytetrahydrofuran-2-yl]methyl sulfamate], the IC50 was 50 to 100 nM. Besides, where the note is “read-out: Percent Inhibition”, the inhibition at 0.111 µM was 52%.

With `Nc1ncnc2c1c(SCC1CC1)nn2[C@@H]1O[C@H](COS(N)(=O)=O)[C@@H](O)[C@H]1O` [Compound I-50, [(2R,3S,4R,5R)-5-{4-amino-3-[(cyclopropylmethyl)sulfanyl]-1H-pyrazolo[3,4-d]pyrimidin-1-yl}-3,4-dihydroxytetrahydrofuran-2-yl]methyl sulfamate], the IC50 is below 20 nM. For the same compound, where the note is “read-out: Percent Inhibition”, the inhibition at 0.111 µM is 88%.

For `Nc1ncnc2c1c(Sc1cccc(F)c1)nn2[C@H]1C[C@H](O)[C@@H](COS(N)(=O)=O)O1` [Compound I-206, [(2R,3S,5R)-5-{4-amino-3-[(3-fluorophenyl)sulfanyl]-1H-pyrazolo[3,4-d]pyrimidin-1-yl}-3-hydroxytetrahydrofuran-2-yl]methyl sulfamate], the IC50 fell in the range of 100 to 500 nM. In addition, under “read-out: Percent Inhibition”, the inhibition at 0.111 µM turned out to be 44%.

Regarding `Nc1ncnc2c1c(OC(F)F)nn2[C@H]1C[C@H](O)[C@@H](COS(N)(=O)=O)O1` [Compound I-195, {(2R,3S,5R)-5-[4-amino-3-(difluoromethoxy)-1H-pyrazolo[3,4-d]pyrimidin-1-yl]-3-hydroxytetrahydrofuran-2-yl}methyl Sulfamate], the IC50 lay within 50 to 100 nM. The inhibition at 0.111 µM (read-out: Percent Inhibition) is 53%.

On to `Nc1ncnc2c1c(SCC(F)F)nn2[C@H]1C[C@H](O)[C@@H](COS(N)(=O)=O)O1` [Compound I-165, [(2R,3S,5R)-5-{4-amino-3-[(2,2-difluoroethyl)sulfanyl]-1H-pyrazolo[3,4-d]pyrimidin-1-yl}-3-hydroxytetrahydrofuran-2-yl]methyl sulfamate], for which the IC50 fell in the range of 50 to 100 nM. Besides, the inhibition at 0.111 µM (read-out: Percent Inhibition) was found to be 62%.

On to `Nc1ncnc2c1c(Sc1ccc(C(F)(F)F)cc1)nn2[C@@H]1O[C@H](COS(N)(=O)=O)[C@@H](O)[C@@H]1F` [Compound I-132, [(2R,3R,4S,5R)-5-(4-amino-3-{[4-(trifluoromethyl)phenyl]sulfanyl}-1H-pyrazolo[3,4-d]pyrimidin-1-yl)-4-fluoro-3-hydroxytetrahydrofuran-2-yl]methyl sulfamate], for which the IC50 was in the range of 50 to 100 nM. Besides, the inhibition at 0.111 µM (read-out: Percent Inhibition) turned out to be 60%.

As for `CC(C)c1nn([C@@H]2O[C@H](COS(N)(=O)=O)[C@@H](O)[C@H]2O)c2ncnc(N)c12` [Compound I-3, [(2R,3S,4R,5R)-5-(4-amino-3-isopropyl-1H-pyrazolo[3,4-d]pyrimidin-1-yl)-3,4-dihydroxytetrahydrofuran-2-yl]methyl Sulfamate], the IC50 was in the range of 100 to 500 nM. Further, the inhibition at 0.069 µM (Concentration 0.069 μM, read-out: Percent Inhibition) was determined as 24%.

For the compound `Nc1ncnc2c1c(SCC(F)F)nn2[C@H]1C[C@H](O)[C@H](COS(N)(=O)=O)O1` [Compound I-227, [(2S,3S,5R)-5-{4-amino-3-[(2,2-difluoroethyl)sulfanyl]-1H-pyrazolo[3,4-d]pyrimidin-1-yl}-3-hydroxytetrahydrofuran-2-yl]methyl Sulfamate], the IC50 was 100 to 500 nM. The inhibition at 0.111 µM (read-out: Percent Inhibition) was 48%.

Consider `CC(O)c1nn([C@@H]2O[C@H](COS(N)(=O)=O)[C@@H](O)[C@H]2O)c2ncnc(N)c12` (single isomer, unassigned) [Compound I-23b, [(2R,3S,4R,5R)-5-{4-amino-3-[(1R)-1-hydroxyethyl]-1H-pyrazolo[3,4-d]pyrimidin-1-yl}-3,4-dihydroxytetrahydrofuran-2-yl]methyl Sulfamate or [(2R,3S,4R,5R)-5-{4-amino-3-[(1S)-1-hydroxyethyl]-1H-pyrazolo[3,4-d]pyrimidin-1-yl}-3,4-dihydroxytetrahydrofuran-2-yl]methyl Sulfamate], for which the IC50 was in the range of 100 to 500 nM. For the same compound, under “read-out: Percent Inhibition”, the inhibition at 0.123 µM is 22%.

As for `CC(CO)Sc1nn([C@@H]2O[C@H](COS(N)(=O)=O)[C@@H](O)[C@@H]2F)c2ncnc(N)c12` (mixture of isomers) [Compound I-144, [(2R,3R,4S,5R)-5-(4-amino-3-{[(2R)-1-hydroxypropan-2-yl]sulfanyl}-1H-pyrazolo[3,4-d]pyrimidin-1-yl)-4-fluoro-3-hydroxytetrahydrofuran-2-yl]methyl sulfamate and [(2R,3R,4S,5R)-5-(4-amino-3-{[(2S)-1-hydroxypropan-2-yl]sulfanyl}-1H-pyrazolo[3,4-d]pyrimidin-1-yl)-4-fluoro-3-hydroxytetrahydrofuran-2-yl]methyl sulfamate], the IC50 was 20 to 50 nM. Moreover, for the setting “read-out: Percent Inhibition”, the inhibition at 0.111 µM amounted to 74%.

Take `Cc1nn([C@@H]2O[C@H](COS(N)(=O)=O)[C@@H](O)[C@H]2O)c2ncnc(N)c12` [Compound I-2, [(2R,3S,4R,5R)-5-(4-amino-3-methyl-1H-pyrazolo[3,4-d]pyrimidin-1-yl)-3,4-dihydroxytetrahydrofuran-2-yl]methyl Sulfamate]: the IC50 is 100 to 500 nM. Besides, the inhibition at 0.123 µM (read-out: Percent Inhibition) was found to be 42%.

Take `Nc1ncnc2c1c(Sc1ccccc1Cl)nn2[C@@H]1O[C@H](COS(N)(=O)=O)[C@@H](O)[C@H]1O` [Compound I-78, [(2R,3S,4R,5R)-5-{4-amino-3-[(2-chlorophenyl)sulfanyl]-1H-pyrazolo[3,4-d]pyrimidin-1-yl}-3,4-dihydroxytetrahydrofuran-2-yl]methyl sulfamate]: the IC50 was in the range of 20 to 50 nM. In addition, the inhibition at 0.123 µM (read-out: Percent Inhibition) came out at 80%.

With `Cc1cccc(CSc2nn([C@@H]3O[C@H](COS(N)(=O)=O)[C@@H](O)[C@H]3O)c3ncnc(N)c23)c1` [Compound I-31, [(2R,3S,4R,5R)-5-{4-amino-3-[(3-methylbenzyl)sulfanyl]-1H-pyrazolo[3,4-d]pyrimidin-1-yl}-3,4-dihydroxytetrahydrofuran-2-yl]methyl sulfamate], the IC50 lay in the range of 20 to 50 nM. Further, under “read-out: Percent Inhibition”, the inhibition at 0.123 µM is 85%.

`Nc1ncnc2c1c(I)nn2[C@H]1C[C@H](O)[C@@H](COS(N)(=O)=O)O1` [Compound I-192, [(2R,3S,5R)-5-(4-amino-3-iodo-1H-pyrazolo[3,4-d]pyrimidin-1-yl)-3-hydroxytetrahydrofuran-2-yl]methyl Sulfamate]: the IC50 lay within 50 to 100 nM. Also, the inhibition at 0.111 µM (read-out: Percent Inhibition) amounted to 61%.

On to `CC(C)CSc1nn([C@@H]2O[C@H](COS(N)(=O)=O)[C@@H](O)[C@H]2O)c2ncnc(N)c12` [Compound I-77, {(2R,3S,4R,5R)-5-[4-amino-3-(isobutylsulfanyl)-1H-pyrazolo[3,4-d]pyrimidin-1-yl]-3,4-dihydroxytetrahydrofuran-2-yl}methyl sulfamate], for which the IC50 lay in the range of 20 to 50 nM. For the setting “read-out: Percent Inhibition”, the inhibition at 0.123 µM is 85%.
